In US20220144775A1, “HYDRAZIDE COMPOUND AND KINASE INHIBITOR” (NISSAN CHEMICAL CORPORATION, priority 2019, published 2022):

How the values were obtained:
LATS1 = target: T1, LATS1 (Homo sapiens, UniProt O95835); test: Kinase inhibitory activity against LATS1 (ADP quantification); format: biochemical; conditions: ATP 400 μM, read-out: kinase inhibitory rate
T1 construct: purchased Carna Biosciences
T1 sequence (O95835 1-1130): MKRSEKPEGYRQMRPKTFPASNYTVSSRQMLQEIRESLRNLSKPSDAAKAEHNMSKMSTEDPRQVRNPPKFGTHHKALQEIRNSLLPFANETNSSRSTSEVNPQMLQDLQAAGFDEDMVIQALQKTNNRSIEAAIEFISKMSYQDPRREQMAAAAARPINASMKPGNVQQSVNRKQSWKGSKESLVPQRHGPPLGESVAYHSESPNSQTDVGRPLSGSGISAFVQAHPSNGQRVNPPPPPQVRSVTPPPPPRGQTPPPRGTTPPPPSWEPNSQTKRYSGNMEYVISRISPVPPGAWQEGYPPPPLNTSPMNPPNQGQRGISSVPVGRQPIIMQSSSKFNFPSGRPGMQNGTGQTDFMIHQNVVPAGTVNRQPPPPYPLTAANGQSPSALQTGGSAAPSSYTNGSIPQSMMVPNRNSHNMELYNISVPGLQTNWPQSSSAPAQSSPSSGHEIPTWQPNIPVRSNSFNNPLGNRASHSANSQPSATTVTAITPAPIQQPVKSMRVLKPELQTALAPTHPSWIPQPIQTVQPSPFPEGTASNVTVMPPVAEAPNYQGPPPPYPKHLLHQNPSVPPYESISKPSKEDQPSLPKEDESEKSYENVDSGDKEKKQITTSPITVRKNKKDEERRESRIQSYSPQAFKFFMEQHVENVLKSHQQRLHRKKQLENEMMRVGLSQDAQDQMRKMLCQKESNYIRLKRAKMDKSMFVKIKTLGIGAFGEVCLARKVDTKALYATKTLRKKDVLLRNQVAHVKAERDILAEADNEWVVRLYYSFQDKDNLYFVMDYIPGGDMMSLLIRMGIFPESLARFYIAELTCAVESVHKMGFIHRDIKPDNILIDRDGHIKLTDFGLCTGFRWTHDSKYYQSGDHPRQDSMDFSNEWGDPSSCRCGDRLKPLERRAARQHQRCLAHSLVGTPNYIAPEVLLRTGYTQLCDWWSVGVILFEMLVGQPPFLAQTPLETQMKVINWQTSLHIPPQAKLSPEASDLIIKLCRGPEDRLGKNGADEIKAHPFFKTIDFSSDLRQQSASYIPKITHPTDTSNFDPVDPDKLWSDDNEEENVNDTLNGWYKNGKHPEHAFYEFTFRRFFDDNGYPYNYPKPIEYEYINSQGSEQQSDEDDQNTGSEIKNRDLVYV
Description: (§1) Evaluation of the inhibitory activity (calculation of kinase inhibitory rate) of the compound of the present invention against LATS1 and LATS2 (manufactured by Carna Biosciences) was performed. The activity was measured using the Kinase Assay method described below. The test concentration of the compound of the present invention was set such that the final concentration was 100 nM or 1000 nM.
(§2) As the analysis method of the data, the mean signal of the control well containing reaction components other than the compound of the present invention was set to 0% inhibition, the mean signal without enzyme addition was set to 100% inhibition, and the inhibition rate was calculated from the mean signal of 2 wells of each compound.
(§3) 2 μL of a compound of the present invention solution at 2.5-fold concentration, 1 μL of substrate at 5-fold concentration (SGKtide: NH2-CKKRNRRLSVA-COOH, manufactured by SignalChem), ATP (manufactured by Sigma-Aldrich), MgCl2 (manufactured by FUJIFILM Wako Pure Chemical Corporation) solution (final concentration 10 μM, 400 μM and 5 mM, respectively), and 2 μL of kinase solution at 2.5-fold concentration (final concentration of LATS1 or LATS2 5 μg/mL), each prepared with assay buffer (20 mM HEPES, 0.01% Triton X-100, 2 mM DTT, 50 μg/mL BSA, pH 7.5), were mixed in the wells of a polypropylene 384-well plate (manufactured by Greiner Bio-One, #784900) and reacted at room temperature for 5 hr. To the solution was added 5 μL detection solution [Fluorospark (registered trade mark) Kinase/ADP Multi-Assay Kit; manufactured by FUJIFILM Wako Pure Chemical Corporation], and the mixture was reacted at room temperature for 30 min. Successively, 5 μL of a reaction quenching liquid [Fluorospark (registered trade mark) Kinase/ADP Multi-Assay Kit; manufactured by FUJIFILM Wako Pure Chemical Corporation] was added to discontinue the reaction. Thereafter, the ADP concentration of the reaction solution was quantified by EnSpire (manufactured by PerkinElmer) to detect the kinase reaction.

LATS2 = target: T2, LATS2 (Homo sapiens, UniProt Q9NRM7); test: Kinase inhibitory activity against LATS2 (ADP quantification); format: biochemical; conditions: ATP 400 μM, read-out: kinase inhibitory rate
T2 construct: purchased Carna Biosciences
T2 sequence (Q9NRM7 1-1088): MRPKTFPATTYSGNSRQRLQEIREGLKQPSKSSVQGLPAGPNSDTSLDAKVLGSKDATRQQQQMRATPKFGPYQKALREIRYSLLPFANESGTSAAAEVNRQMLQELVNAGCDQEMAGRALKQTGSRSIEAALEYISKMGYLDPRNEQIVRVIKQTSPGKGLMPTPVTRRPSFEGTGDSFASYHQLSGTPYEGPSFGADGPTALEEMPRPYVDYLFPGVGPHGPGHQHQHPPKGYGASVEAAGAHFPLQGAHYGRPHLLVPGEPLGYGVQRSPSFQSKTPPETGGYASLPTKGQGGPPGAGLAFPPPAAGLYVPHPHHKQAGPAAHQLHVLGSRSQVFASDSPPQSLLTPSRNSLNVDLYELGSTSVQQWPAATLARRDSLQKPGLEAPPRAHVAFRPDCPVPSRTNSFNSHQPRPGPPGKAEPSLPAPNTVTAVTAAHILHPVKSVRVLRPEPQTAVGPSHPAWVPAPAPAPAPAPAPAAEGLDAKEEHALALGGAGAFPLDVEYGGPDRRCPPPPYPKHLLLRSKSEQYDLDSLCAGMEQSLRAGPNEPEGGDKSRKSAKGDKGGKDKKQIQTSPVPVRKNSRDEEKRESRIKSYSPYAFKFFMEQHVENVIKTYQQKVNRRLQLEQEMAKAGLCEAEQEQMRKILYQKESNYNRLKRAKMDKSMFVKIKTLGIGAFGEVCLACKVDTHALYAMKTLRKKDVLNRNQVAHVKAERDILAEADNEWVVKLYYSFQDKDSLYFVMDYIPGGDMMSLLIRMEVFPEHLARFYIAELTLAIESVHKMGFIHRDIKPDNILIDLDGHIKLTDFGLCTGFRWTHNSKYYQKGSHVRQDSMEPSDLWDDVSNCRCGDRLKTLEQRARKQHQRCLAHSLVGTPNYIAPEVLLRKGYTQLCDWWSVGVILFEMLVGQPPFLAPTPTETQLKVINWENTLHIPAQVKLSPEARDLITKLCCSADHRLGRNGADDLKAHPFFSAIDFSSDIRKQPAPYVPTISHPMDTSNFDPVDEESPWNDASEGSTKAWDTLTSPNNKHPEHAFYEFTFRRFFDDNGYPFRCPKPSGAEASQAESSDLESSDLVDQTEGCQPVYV
Description: as §1, §2, §3

CC/C(=N\NC(=O)C(C)Nc1cccnc1)c1ccc(O)c(C)c1O (stereo not shown) [A-004, (E)-N′-(1-(2,4-dihydroxy-3-methylphenyl)propylidene)-2-(pyridin-3-ylamino)propanehydrazide]
≥ 40%: inhibition at 0.1 µM (LATS1; final concentration 100 nM) | inhibition at 1 µM (LATS1; final concentration 1000 nM) | inhibition at 0.1 µM (LATS2; final concentration 100 nM) | inhibition at 1 µM (LATS2; final concentration 1000 nM)
